Source: US7750003B2, “Compounds-943” (AstraZeneca AB, priority 2006, dated 2010)

Target: recombinant mTOR (FLAG-tagged, residues 1362-2549) (Homo sapiens, UniProt P42345)
Assay: In vitro mTOR kinase assay (Test (a), AlphaScreen)
Type: biochemical
Details: ATP 20 μM, read-out: Test (a): IC50 versus mTOR kinase
Method in brief: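 AlphaScreen read-out: a phospho-T389 p70 S6K antibody on acceptor beads captures the phosphorylated biotin-peptide on donor beads, with signal loss indicating inhibition.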

Sequence of recombinant mTOR (FLAG-tagged, residues 1362-2549) (P42345 1362-2549): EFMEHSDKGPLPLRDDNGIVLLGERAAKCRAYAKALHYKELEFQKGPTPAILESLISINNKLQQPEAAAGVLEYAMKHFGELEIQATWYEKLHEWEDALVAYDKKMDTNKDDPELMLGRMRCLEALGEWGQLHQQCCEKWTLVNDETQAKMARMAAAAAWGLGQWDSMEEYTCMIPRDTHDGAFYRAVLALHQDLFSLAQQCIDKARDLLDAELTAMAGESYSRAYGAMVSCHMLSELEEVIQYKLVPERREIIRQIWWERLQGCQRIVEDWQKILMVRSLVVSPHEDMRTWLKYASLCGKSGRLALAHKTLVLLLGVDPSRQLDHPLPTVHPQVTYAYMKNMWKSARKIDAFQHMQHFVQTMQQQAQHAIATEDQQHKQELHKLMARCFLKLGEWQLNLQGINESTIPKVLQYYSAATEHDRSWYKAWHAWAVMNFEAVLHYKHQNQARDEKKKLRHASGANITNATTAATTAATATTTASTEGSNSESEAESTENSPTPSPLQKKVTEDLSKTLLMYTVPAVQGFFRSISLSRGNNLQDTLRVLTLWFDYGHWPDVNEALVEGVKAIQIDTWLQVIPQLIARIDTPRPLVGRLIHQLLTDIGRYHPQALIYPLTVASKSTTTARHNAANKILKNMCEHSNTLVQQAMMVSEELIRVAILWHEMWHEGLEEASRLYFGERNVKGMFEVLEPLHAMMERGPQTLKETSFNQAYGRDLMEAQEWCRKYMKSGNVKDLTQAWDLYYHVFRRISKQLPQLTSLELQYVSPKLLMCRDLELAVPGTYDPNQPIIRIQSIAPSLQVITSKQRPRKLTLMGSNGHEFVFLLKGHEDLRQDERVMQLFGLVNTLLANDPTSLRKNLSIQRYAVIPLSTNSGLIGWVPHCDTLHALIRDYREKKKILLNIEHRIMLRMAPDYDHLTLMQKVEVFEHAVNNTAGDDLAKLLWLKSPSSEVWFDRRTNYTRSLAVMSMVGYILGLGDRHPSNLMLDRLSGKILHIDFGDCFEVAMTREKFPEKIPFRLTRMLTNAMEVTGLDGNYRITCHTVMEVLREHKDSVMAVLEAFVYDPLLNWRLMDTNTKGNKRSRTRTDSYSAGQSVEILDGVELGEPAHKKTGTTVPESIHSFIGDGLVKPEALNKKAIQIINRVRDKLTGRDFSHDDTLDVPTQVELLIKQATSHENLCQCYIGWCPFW

Row | Structure (SMILES) | IC50 [nM]
1 | CN1CCN(CCNC(=O)Nc2ccc(-c3nc(CS(C)(=O)=O)cc(N4CCOCC4)n3)cc2)CC1 [Example 45w, 1-[2-(4-methylpiperazin-1-yl)ethyl]-3-[4-[4-(methylsulfonylmethyl)-6-morpholin-4-yl-pyrimidin-2-yl]phenyl]urea] | 740
2 | CN(CCS(C)(=O)=O)C(=O)Nc1ccc(-c2nc(CS(C)(=O)=O)cc(N3CCOCC3)n2)cc1 [Example 45x, 1-methyl-1-(2-methylsulfonylethyl)-3-[4-[4-(methylsulfonylmethyl)-6-morpholin-4-yl-pyrimidin-2-yl]phenyl]urea] | 1100
3 | CNC(=O)C1CCN(C(=O)Nc2ccc(-c3nc(CS(C)(=O)=O)cc(N4CCOCC4)n3)cc2)CC1 [Example 45y, N′-methyl-N-[4-[4-(methylsulfonylmethyl)-6-morpholin-4-yl-pyrimidin-2-yl]phenyl]piperidine-1,4-dicarboxamide] | 1200
4 | CN(C)C(=O)CNC(=O)Nc1ccc(-c2nc(CS(C)(=O)=O)cc(N3CCOCC3)n2)cc1 [Example 45z, N,N-dimethyl-2-[[4-[4-(methylsulfonylmethyl)-6-morpholin-4-yl-pyrimidin-2-yl]phenyl]carbamoylamino] acetamide] | 1000
5 | CNC(=O)Nc1ncc(-c2nc(CS(C)(=O)=O)cc(N3CCOC[C@@H]3C)n2)s1 [Example 46, 3-Methyl-1-[5-[4-[(3S)-3-methylmorpholin-4-yl]-6-(methylsulfonylmethyl)pyrimidin-2-yl]-1,3-thiazol-2-yl]urea] | 140
6 | CC(C)NC(=O)Nc1ncc(-c2nc(CS(C)(=O)=O)cc(N3CCOC[C@@H]3C)n2)s1 [Example 46a, 1-[5-[4-[(3S)-3-methylmorpholin-4-yl]-6-(methylsulfonylmethyl)pyrimidin-2-yl]-1,3-thiazol-2-yl]-3-propan-2-yl-urea] | 350
7 | CCNC(=O)Nc1ncc(-c2nc(CS(C)(=O)=O)cc(N3CCOC[C@@H]3C)n2)s1 [Example 46b, 1-ethyl-3-[5-[4-[(3S)-3-methylmorpholin-4-yl]-6-(methylsulfonylmethyl)pyrimidin-2-yl]-1,3-thiazol-2-yl]urea] | 6.1
8 | C[C@H]1COCCN1c1cc(CS(C)(=O)=O)nc(-c2cnc(NC(=O)Nc3ccccc3)s2)n1 [Example 46c, 1-[5-[4-[(3S)-3-methylmorpholin-4-yl]-6-(methylsulfonylmethyl)pyrimidin-2-yl]-1,3-thiazol-2-yl]-3-phenyl-urea] | 450
9 | C[C@H]1COCCN1c1cc(CS(C)(=O)=O)nc(-c2cnc(NC(=O)Nc3ccc(F)cc3)s2)n1 [Example 46d, 3-(4-fluorophenyl)-1-[5-[4-[(3S)-3-methylmorpholin-4-yl]-6-(methylsulfonylmethyl)pyrimidin-2-yl]-1,3-thiazol-2-yl]urea] | 850
10 | C[C@H]1COCCN1c1cc(CS(C)(=O)=O)nc(-c2cnc(NC(=O)N(C)C3CC3)s2)n1 [Example 46e, 1-cyclopropyl-1-methyl-3-[5-[4-[(3S)-3-methylmorpholin-4-yl]-6-(methylsulfonylmethyl)pyrimidin-2-yl]-1,3-thiazol-2-yl]urea] | 710
11 | COc1ccc(NC(=O)Nc2ncc(-c3nc(CS(C)(=O)=O)cc(N4CCOC[C@@H]4C)n3)s2)cc1 [Example 46f, 3-(4-methoxyphenyl)-1-[5-[4-[(3S)-3-methylmorpholin-4-yl]-6-(methylsulfonylmethyl)pyrimidin-2-yl]-1,3-thiazol-2-yl]urea] | 1200
12 | C[C@H]1COCCN1c1cc(CS(C)(=O)=O)nc(-c2cnc(NC(=O)NCCN(C)C)s2)n1 [Example 46g, 3-(2-dimethylaminoethyl)-1-[5-[4-[(3S)-3-methylmorpholin-4-yl]-6-(methylsulfonylmethyl)pyrimidin-2-yl]-1,3-thiazol-2-yl]urea] | 730
13 | C[C@H]1COCCN1c1cc(CS(C)(=O)=O)nc(-c2cnc(NC(=O)Nc3cnn(C)c3)s2)n1 [Example 46h, 1-[5-[4-[(3S)-3-methylmorpholin-4-yl]-6-(methylsulfonylmethyl)pyrimidin-2-yl]-1,3-thiazol-2-yl]-3-(1-methylpyrazol-4-yl)urea] | 63
